Here are results for 3 molecules from patent US20110236506A1, “PHARMACEUTICAL ASSOCIATION CONTAINING LIPOIC ACID AND HYDROXYCITRIC ACID AS ACTIVE INGREDIENTS” (priority 2008, published 2011).

For data set [1], the system named is MBT-2 murine bladder tumors. Briefly: Antitumor activity tests on C3H mice with implanted MBT-2 tumors. The class given is in vivo. On the procedure:
The compositions described hereinafter were tested against MBT-2 murine bladder tumors implanted in syngeneic C3H mice. These mice develop a tumor of 7 to 10 mm in diameter in approximately 20 days. The pharmaceutical combinations according to the invention and also the control compositions were administered intraperitoneally, for 21 days, starting from the 19th day after tumor inoculation. The change in tumor development was monitored by measuring the size of the tumors and monitoring the survival of the animals during the experiment.
The mice were randomized in groups of 18 individuals, the tumor of which is palpable (size of approximately 10 mm, after approximately 19 days of tumor development), according to the size of the tumor and the weight of the animals. For each animal, the maximum diameter of each tumor was measured with a Vernier caliper in order to determine the tumor volume. […]
The treatment with 5-FU (positive control) was administered intraperitoneally with a dose of 10 mg/kg once a day for 4 days. The mice treated with 5-FU were monitored in the same way as the other mice.
Every five days, the evolution of the tumor was monitored by various measurements: weight of the animals, tumor size (caliper rule), mortality. […]

The next data set has as its system T-24 tumor cell line. Briefly: Cell proliferation and viability test (MTT / number of cells), T-24 cell line. To be noted: molecule tested alone, relative to control culture. Format: cell-based, human. On the procedure: The T-24 tumor cell line is a transitional bladder carcinoma isolated from a person (O'Toole C M. et al. 1983 Nature 301: 429-30).
(§1) The tumor cell lines were cultured in monolayer at 37° C. in a humidified atmosphere (5% CO2, 95% air). The culture medium which was used is DMEM Glutamax I (Invitrogen) for the two lines, supplemented with 10% of fetal calf serum (Eurobio) and 1/10 000 IU of penicillin and streptomycin. For carrying out the experiments, the human tumor cell lines were detached from the culture flask by treatment for 10 minutes with a solution of trypsin in Hanks medium without calcium or magnesium. The cells were counted in a hemocytometer and their viability was determined using the trypan blue exclusion test.
(§2) The tumor cell lines were amplified and then seeded into 96-well microplates (MTT) or 6-well plates (cell counts) at a concentration which allowed the cells to be in the proliferation phase for the 5 days of the culture. They were incubated for 48 hours before the beginning of the treatments in the microplates containing culture medium without the test substances or the reference substances.
During phase I (test with a single active ingredient), the tumor cell lines were incubated for 5 days at 37° C. under 5% CO2 with culture medium containing one of the test substances. Each experimental condition was reproduced six times. Generally, the flasks of culture medium supplemented with serum were first of all prepared with the highest concentration of each test molecule. Each other concentration to be tested was obtained by successive dilutions in the serum-supplemented culture medium. This step was adjusted according to the particular instability or sensitivity of each drug.
In phase II of the study (test with the combination of the two active ingredients), the same conditions for preparing the media and for culturing the cells were adhered to, and the active ingredients were combined and added simultaneously to the culture medium.
(§3) The tumor cell lines were incubated with 100 μl (96-well plates) or 2 ml (6-well plates) of serum-supplemented culture medium containing the test substances or the reference substance. The culture medium of each culture well (supplemented with the test molecule(s)) was renewed every two days during the treatment.
(§4) Starting from the first day of contact, and every two days after the beginning of the contacting of the culture media containing the test substances and the reference substances at the various concentrations tested, the proliferation and the cell viability of the cells were evaluated. The cell viability was evaluated in two different ways: • directly, under an optical microscope by statistical counting (number of cells), and • indirectly, by colorimetric assay based on the degradation of tetrazolium salts by mitochondrial dehydrogenases (MIT test). The optical densities (OD) of each well were then read with a microplate reader set at the appropriate wavelength.
(§5) For each active ingredient, each concentration tested and each combination, three cell viability values were measured and corrected, in particular by means of the calibration ranges for the optical reading instrument.
(§6) The mean of the three cell viability measurement values was then divided by the mean of the measurements of viability carried out in parallel in a control culture free of active ingredients.

The test system of the next data set is HT-29 tumor cell line. Kind of data set: Cell proliferation and viability test (MTT / number of cells), HT-29 cell line. Format: cell-based, human. To be noted: molecule tested alone, relative to control culture. On the procedure:
The HT-29 tumor cell line was isolated in 1964 from a primary colonic adenocarcinoma in a person (Fogh J. et al. 1977 J. Nat. Cancer. Inst. 59: 221-6).
as §1, §2
During phase I (test with a single active ingredient), the tumor cell lines were incubated for 5 days at 37° C. under 5% CO2 with culture medium containing one of the test substances. Each experimental condition was reproduced six times. Generally, the flasks of culture medium supplemented with serum were first of all prepared with the highest concentration of each test molecule. Each other concentration to be tested was obtained by successive dilutions in the serum-supplemented culture medium. This step was adjusted according to the particular instability or sensitivity of each drug. […]
as §3, §4, §5, §6

The test system of data set [2] is HT-29 and T-24 cell lines. Kind of data set: Cell viability tests, observations stated jointly for the two cell lines. The class given is cell-based. To be noted: human, 5 days, 4 μmol.l−1. On the procedure:
as §1, with “test. […]” for “test.”
as §4

Consider `O=c1[nH]cc(F)c(=O)[nH]1` [5-FU, 5-fluorouracil], for which, in data set [1] (FIG. 4B, groups of 18 mice), the “days of implantation after which 50% of the mice are still alive” value was found to be 39 days. Further, in data set [1] (controls: 50% alive after 27 days), the “increase in survival compared with the control mice” value is 12 days.
In the case of calcium hydroxycitrate, the “Ratio of live T-24 cells after 72 hours, MTT” value with T-24 tumor cell line (0.2 μmol·l−1) was determined as 0.725; in the data set on T-24 tumor cell line (3 μmol·l−1) it was 0.488; in the data set on T-24 tumor cell line (45 μmol·l−1), 0.359. In addition, the “Ratio of live T-24 cells after 72 hours, Number of cells” value was 0.845 with T-24 tumor cell line (0.2 μmol·l−1), 0.643 in the data set with T-24 tumor cell line (3 μmol·l−1) and 0.450 in the data set with T-24 tumor cell line (45 μmol·l−1). In addition, the “Ratio of live HT-29 cells after 72 hours, MTT” value in the data set on HT-29 tumor cell line (10 μmol·l−1) is recorded as 0.743; in the data set with HT-29 tumor cell line (100 μmol·l−1), 0.519; in the data set with HT-29 tumor cell line (500 μmol·l−1), 0.376. Moreover, the “Ratio of live HT-29 cells after 72 hours, Number of cells” value in the data set with HT-29 tumor cell line (10 μmol·l−1) turned out to be 0.777; with HT-29 tumor cell line (100 μmol·l−1), 0.557; in the data set with HT-29 tumor cell line (500 μmol·l−1), 0.374.
`O=C(O)CCCCC1CCSS1` (stereo not drawn) [Lipoic acid, alpha-lipoic acid]: the “Ratio of live T-24 cells after 72 hours, MTT” value in the data set on T-24 tumor cell line (0.1 μmol·l−1) turned out to be 0.898; with T-24 tumor cell line (1 μmol·l−1), 0.690; with T-24 tumor cell line (10 μmol·l−1) it was 0.534. Besides, the “Ratio of live T-24 cells after 72 hours, Number of cells” value was found to be 0.940 in the data set with T-24 tumor cell line (0.1 μmol·l−1), 0.772 in the data set on T-24 tumor cell line (1 μmol·l−1) and 0.601 in the data set on T-24 tumor cell line (10 μmol·l−1). The cell mortality in data set [2] was not above 50%. Also, the “Ratio of live HT-29 cells after 72 hours, MTT” value is 0.807 in the data set on HT-29 tumor cell line (0.1 μmol·l−1), 0.55 in the data set with HT-29 tumor cell line (1 μmol·l−1) and 0.452 in the data set on HT-29 tumor cell line (10 μmol·l−1). Moreover, the “Ratio of live HT-29 cells after 72 hours, Number of cells” value in the data set on HT-29 tumor cell line (0.1 μmol·l−1) was 0.853; in the data set with HT-29 tumor cell line (1 μmol·l−1), 0.583; in the data set with HT-29 tumor cell line (10 μmol·l−1) it was 0.441.
